Assay results reported in article PMC1810525, “Antagonism of the prostaglandin D2 receptor CRTH2 attenuates asthma pathology in mouse eosinophilic airway inflammation” (Respiratory Research, 2007).
pKi: −log10 of the molar value.

Experiments:
[1] = molecular target: T1, CXCR2 (Homo sapiens, UniProt P25025); test: Profiling panel, radioligand binding CXCR2; settings: 10 μM
T1 sequence (P25025 1-360): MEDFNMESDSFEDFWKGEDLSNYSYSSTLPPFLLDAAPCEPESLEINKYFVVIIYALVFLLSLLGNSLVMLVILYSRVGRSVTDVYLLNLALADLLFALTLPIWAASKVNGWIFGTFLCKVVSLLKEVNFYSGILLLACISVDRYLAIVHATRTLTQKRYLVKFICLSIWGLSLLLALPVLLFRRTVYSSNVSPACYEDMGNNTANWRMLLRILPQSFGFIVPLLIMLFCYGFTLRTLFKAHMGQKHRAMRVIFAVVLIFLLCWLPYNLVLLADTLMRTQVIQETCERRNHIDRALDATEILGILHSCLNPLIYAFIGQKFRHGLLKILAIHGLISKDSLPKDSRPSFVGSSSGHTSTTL
Procedure: (§1) All assays were performed using recombinant human receptors and enzymes, and included the appropriate controls for assay validation. Enzymatic and binding assays, except for muscarinic binding, were performed by CEREP in vitro pharmacology profiling services. […] For stimulation of C3a, C5a, and ChemR23 receptors in InsP assays the following agonists were used: human recombinant C3a (C3a receptor), human recombinant C5a (C5a receptor), and the nonapeptide Chemerin (ChemR23).

[2] = molecular target: COX1 (Homo sapiens, UniProt P23219); test: Profiling panel, enzymatic assay COX1; type: biochemical; settings: 10 μM
Sequence of COX1 (P23219 24-599): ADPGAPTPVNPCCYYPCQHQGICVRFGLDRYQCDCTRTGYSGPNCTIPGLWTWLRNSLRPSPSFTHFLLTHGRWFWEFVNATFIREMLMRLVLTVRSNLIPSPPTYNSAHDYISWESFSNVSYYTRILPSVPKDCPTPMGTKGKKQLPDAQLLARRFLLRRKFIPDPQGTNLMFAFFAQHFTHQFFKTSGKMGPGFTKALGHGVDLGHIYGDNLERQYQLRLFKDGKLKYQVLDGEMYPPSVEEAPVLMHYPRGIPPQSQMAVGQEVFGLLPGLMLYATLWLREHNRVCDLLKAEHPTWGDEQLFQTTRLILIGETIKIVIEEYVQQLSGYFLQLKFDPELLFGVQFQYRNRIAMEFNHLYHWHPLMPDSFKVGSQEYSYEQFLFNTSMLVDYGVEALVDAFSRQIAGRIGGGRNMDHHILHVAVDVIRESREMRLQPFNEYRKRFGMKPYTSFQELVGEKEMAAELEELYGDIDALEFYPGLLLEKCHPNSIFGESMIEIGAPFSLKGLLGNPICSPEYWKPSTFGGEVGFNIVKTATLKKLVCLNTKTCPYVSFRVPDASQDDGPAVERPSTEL
Procedure: as §1

[3] = molecular target: T2, C3a (Homo sapiens, UniProt Q16581); test: Profiling panel, functional InsP C3a receptor; type: cell-based; settings: 10 μM
T2 sequence (Q16581 1-482): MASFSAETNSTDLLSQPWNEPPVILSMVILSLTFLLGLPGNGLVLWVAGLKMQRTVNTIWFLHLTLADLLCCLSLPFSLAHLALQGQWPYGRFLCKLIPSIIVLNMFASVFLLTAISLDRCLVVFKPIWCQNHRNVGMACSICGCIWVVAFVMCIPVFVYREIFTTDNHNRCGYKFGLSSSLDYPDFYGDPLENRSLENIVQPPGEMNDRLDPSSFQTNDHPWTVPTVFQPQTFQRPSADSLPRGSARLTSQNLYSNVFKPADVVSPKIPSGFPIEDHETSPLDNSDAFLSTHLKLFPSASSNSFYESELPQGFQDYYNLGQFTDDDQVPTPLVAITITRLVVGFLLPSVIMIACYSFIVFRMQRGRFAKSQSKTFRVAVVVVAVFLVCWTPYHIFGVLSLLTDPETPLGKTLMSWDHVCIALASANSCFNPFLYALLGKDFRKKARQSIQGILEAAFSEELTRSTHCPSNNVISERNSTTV

[4] = molecular target: T3, CysLT1 (Homo sapiens, UniProt Q9Y271); test: Profiling panel, radioligand binding CysLT1; settings: 10 μM
T3 sequence (Q9Y271 1-337): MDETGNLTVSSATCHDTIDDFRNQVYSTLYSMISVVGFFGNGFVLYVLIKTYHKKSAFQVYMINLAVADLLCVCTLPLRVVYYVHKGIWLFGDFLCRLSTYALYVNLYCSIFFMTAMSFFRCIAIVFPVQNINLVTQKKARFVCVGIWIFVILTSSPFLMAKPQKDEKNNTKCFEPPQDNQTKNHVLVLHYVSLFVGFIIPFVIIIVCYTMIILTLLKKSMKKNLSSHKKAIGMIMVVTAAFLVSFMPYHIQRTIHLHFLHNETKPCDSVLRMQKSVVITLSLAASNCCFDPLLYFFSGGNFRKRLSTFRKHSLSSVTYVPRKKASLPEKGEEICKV
Procedure: as §1

[5] = molecular target: BLT1 (Homo sapiens, UniProt Q15722); test: Profiling panel, radioligand binding BLT1; settings: 10 μM
Sequence of BLT1 (Q15722 whole entry): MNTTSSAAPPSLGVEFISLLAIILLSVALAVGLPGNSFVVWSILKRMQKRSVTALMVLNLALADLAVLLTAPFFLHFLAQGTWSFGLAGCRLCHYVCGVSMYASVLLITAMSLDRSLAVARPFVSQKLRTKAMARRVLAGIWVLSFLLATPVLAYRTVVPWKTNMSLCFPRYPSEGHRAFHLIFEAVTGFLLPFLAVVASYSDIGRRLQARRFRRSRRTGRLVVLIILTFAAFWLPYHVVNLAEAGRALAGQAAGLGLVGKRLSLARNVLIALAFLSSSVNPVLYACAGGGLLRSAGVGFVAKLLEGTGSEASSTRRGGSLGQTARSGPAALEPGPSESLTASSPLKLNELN
Procedure: as §1

[6] = molecular target: T4, ChemR23 (Homo sapiens, UniProt Q99788); test: Profiling panel, functional InsP ChemR23; type: cell-based; settings: 10 μM
T4 sequence (Q99788 1-373): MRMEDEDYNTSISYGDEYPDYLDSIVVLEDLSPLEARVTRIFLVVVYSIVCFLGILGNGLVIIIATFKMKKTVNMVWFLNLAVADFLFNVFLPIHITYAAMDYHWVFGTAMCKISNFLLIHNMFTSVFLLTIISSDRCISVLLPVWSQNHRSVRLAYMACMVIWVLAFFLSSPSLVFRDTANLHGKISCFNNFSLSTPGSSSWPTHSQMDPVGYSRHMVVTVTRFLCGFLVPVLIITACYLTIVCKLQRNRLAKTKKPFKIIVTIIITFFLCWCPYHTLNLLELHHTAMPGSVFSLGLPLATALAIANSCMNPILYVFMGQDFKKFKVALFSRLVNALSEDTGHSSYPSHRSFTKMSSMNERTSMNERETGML

[7] = molecular target: T5, COX2 (Homo sapiens, UniProt P35354); test: Profiling panel, enzymatic assay COX2; type: biochemical; settings: 10 μM
T5 sequence (P35354 18-604): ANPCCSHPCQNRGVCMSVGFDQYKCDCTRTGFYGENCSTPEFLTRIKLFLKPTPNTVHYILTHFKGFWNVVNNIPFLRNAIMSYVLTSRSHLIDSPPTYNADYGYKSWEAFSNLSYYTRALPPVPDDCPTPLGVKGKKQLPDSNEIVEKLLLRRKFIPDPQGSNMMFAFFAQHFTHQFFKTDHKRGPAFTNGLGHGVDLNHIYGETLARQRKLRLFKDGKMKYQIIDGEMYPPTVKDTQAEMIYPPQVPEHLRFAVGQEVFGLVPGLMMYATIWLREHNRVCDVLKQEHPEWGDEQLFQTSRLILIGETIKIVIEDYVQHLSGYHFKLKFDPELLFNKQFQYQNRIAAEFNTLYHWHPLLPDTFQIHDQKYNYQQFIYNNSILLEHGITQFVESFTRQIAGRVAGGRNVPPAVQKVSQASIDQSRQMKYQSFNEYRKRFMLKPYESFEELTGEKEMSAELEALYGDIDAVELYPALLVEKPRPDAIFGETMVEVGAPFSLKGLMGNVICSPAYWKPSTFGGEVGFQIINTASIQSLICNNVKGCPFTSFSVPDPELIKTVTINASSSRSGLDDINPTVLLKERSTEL
Procedure: as §1

[8] = molecular target: T6, AT2 (Homo sapiens, UniProt P50052); test: Profiling panel, radioligand binding AT2; settings: 10 μM
T6 sequence (P50052 1-363): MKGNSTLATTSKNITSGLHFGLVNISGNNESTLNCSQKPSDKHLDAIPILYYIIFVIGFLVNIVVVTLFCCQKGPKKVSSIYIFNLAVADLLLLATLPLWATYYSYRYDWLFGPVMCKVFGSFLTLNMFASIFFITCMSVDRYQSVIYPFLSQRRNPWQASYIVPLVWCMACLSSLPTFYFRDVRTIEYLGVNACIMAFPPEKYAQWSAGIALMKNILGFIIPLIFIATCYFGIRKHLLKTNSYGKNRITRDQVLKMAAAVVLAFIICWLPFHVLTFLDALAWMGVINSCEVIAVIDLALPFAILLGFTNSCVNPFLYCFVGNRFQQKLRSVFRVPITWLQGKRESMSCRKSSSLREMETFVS
Procedure: as §1

[9] = molecular target: iNOS (Homo sapiens, UniProt P35228); test: Profiling panel, enzymatic assay iNOS; type: biochemical; settings: 10 μM
Procedure: as §1

[10] = molecular target: mCRTH2; design: method as in PMID 15563582; settings: obtained by others in the same expression system; read-out: reported Ki value mCRTH2; cited from earlier work

## CN(C1CCc2c(c3ccccc3n2CC(=O)O)C1)S(=O)(=O)c1ccc(F)cc1 (stereo not shown) [TM30089]
[1]
  % of control CXCR2: 104.6 ± 6.1%
[2]
  % of control COX1: 109.6 ± 3.6%
[3]
  % of control C3a: 88.7 ± 5.9%
[4]
  % of control CysLT1: 116.9 ± 10.5%
[5]
  % of control BLT1: 89.3 ± 3.5%
[6]
  % of control ChemR23: 96.6 ± 1.6%
[7]
  % of control COX2: 123.8 ± 13.4%
[8]
  % of control AT2: 98.1 ± 1.4%
[9]
  % of control iNOS: 102.3 ± 3.6%

## O=C(O)CCn1c2c(c3ccccc31)C[C@H](NS(=O)(=O)c1ccc(F)cc1)CC2 [ramatroban, reference compound]
[10]
  pKi: 7.55
